Laboratory results as given in article PMC6269003, “Two New Coumarins from Micromelum falcatum with Cytotoxicity and Brine Shrimp Larvae Toxicity” (Molecules, 2012).
In brackets after ≈: the same amount, converted by molar mass.

Key:
brine shrimp larvae = assay: in vivo; conditions: for LC50 against brine shrimp larvae: 96 well plates assay; for LD50 (brine shrimp): brine shrimp larvae, 96 well plates, 24 h incubation
Procedure: (§1) According to the method described by Wanyoike, brine shrimp eggs (Ocean Star International, Inc., USA) were hatched in a large beaker containing natural sea water (South China Sea) and they were cultured at room temperature for 48 h. With the help of a light source, the larvae grouped together on one side of the vessel and were easily collected for the assay. […] Each test was processed in triplicate with approximate ten larvae. Brine shrimps were counted under a magnifying glass after 24 h of incubation and maintaining the 96 well plates under illumination. The controls were prepared in the same manner except that the test samples were omitted.

in vivo = conditions: brine shrimp, in vivo, other: larvae exposed in sea water in 96 well plate, LC50 against brine shrimp larvae; 96 well plates assay
Procedure: as §1

[1] = tested on: lung cancer (HvEvc) cell line; assay: antiproliferative MTT assay, HvEvc; format: cell-based; conditions: MTT method, 72 h
Procedure: (§2) Antiproliferative activities of compounds were evaluated by the MTT method using mammary cancer (F10) and lung cancer (HvEvc) cell lines. In MTT assay, the cell suspensions (200 μL) at a density of 1 × 10^5 cells mL^−1 were plated in 96-well microtiter plates and incubated for 24 h at 37 °C in a humidified incubator at 5% CO2. The tested compound solution (2 μL in DMSO) at different concentrations was added to each well and further incubated for 72 h in the same condition. Then, the MTT solution (50 μL) was added to each well and incubated for 4 h. The old medium (150 μL) containing MTT was then gently replaced by DMSO. Absorbance was then determined on a Spectra Max Plus plate reader at 490 nm.

[2] = tested on: mammary cancer (F10) cell line; assay: antiproliferative MTT assay, F10; format: cell-based; conditions: MTT method, 72 h
Procedure: as §2

[3] = tested on: P-388 lymphocytic leukemia; design: method as in PMID 490172; conditions: mice, 10 mg/Kg; cited from earlier work
Lewis lung carcinoma = tested on: Lewis lung carcinoma; design: method as in PMID 490172; conditions: mice, 1.25 mg/Kg; cited from earlier work
[4] = design: method as in PMID 10378778; conditions: cited from earlier work
[5] = tested on: P-388 lymphocytic leukemia; design: method as in doi:10.1021/jo00150a028; conditions: in vitro; cited from earlier work

Molecule | LC50 against brine shrimp larvae (brine shrimp larvae) | LD50 (brine shrimp) (brine shrimp larvae) | further results
COc1ccc2ccc(=O)oc2c1/C=C/C(CO)COC(=O)CC(C)C (stereo not shown) [Compound 1, 7-Methoxy-8-(2-hydroxmethyl-1-O-isovaleryl-4-butenyl)coumarin] | < 10 µM | 6.8 µg/mL | LC50 at 24 h (in vivo): 6.8 µg/mL (≈ 18.9 µM); IC50 [1]: 35.7 µg/mL (≈ 99.1 µM)
C=C(C)C(OC1OC(CO)C(O)C(O)C1O)C(O)c1c(OC)ccc2ccc(=O)oc12 (stereo not drawn) [Compound 2, 7-Methoxy-8-(1-hydroxy-2-O-β-glucopyranosyl-3-methyl-4-butene-1-yl)coumarin] |  | 29.1 µg/mL | LC50 at 24 h (in vivo): < 500 µg/mL; IC50 [2]: 23.6 µg/mL (≈ 53.8 µM); IC50 [1]: 68.5 µg/mL (≈ 156 µM)
COc1cc2oc(=O)ccc2cc1C=O [Compound 4, 6-formyl-7-methoxycoumarin] |  | >500 µg/mL | 
COc1ccc2ccc(=O)oc2c1C(C=O)=C(C)C [Compound 5, murralongin] |  | >500 µg/mL | 
COc1ccc2ccc(=O)oc2c1/C=C/C(C)(C)O [Compound 6, murraol] | < 500 µM | 199.3 µg/mL | IC50 (HvEvc) [1]: 172.5 µg/mL (≈ 663 µM)
C=C(C)C(CO)c1c(OC)ccc2ccc(=O)oc12 (stereo not shown) [Compound 10, isomurralonginol] | < 500 µM | 50.6 µg/mL | IC50 (HvEvc) [1]: 72.6 µg/mL (≈ 279 µM)
C=C(C)C(O)C(OC)c1c(OC)ccc2ccc(=O)oc12 (stereo not shown) [Compound 11, murracarpin] | < 500 µM | 158.5 µg/mL | IC50 (HvEvc) [1]: 124.3 µg/mL (≈ 428 µM)
COc1cc2oc(=O)ccc2cc1[C@@H]1OC(=O)[C@@]2(C)O[C@@H]12 [micromelin] |  |  | T/C [3]: 149%; T/C (Lewis lung carcinoma): 228%
C=C(C)[C@H](O)[C@@H](O)c1c(OC)ccc2ccc(=O)oc12 [minumicrolin] |  |  | anti-tumor promoting activity [4]: valuable anti-tumor promoting agents
C=C(C)[C@@H](O)[C@@H](O)c1c(OC)ccc2ccc(=O)oc12 [murrangatin] |  |  | anti-tumor promoting activity [4]: valuable anti-tumor promoting agents
(E)-osthenone [Compound 9] |  | >500 µg/mL | 
arscotin [Compound 7] | < 500 µM | 118.5 µg/mL | 
methoxymicrominutinin [Compound 13] |  | >500 µg/mL | 
microfalcatin isovalerate [Compound 14] |  |  | IC50 (F10) [2]: 112.0 µg/mL
microminutin [Compound 3] | < 500 µM | 107.3 µg/mL | IC50 (F10) [2]: 82.9 µg/mL; ED50 [5]: 3.7 µg/mL
microminutinin [Compound 12] |  | >500 µg/mL | 
murralonginol [Compound 8] |  | >500 µg/mL | 
